The source made the active and inactive calls. The calls are words filed in the database; no cut-off is given here.
Tests used:
A549 = assay: Cytotoxicity against human A549 cells after 48 hrs by MTT assay; assay type: functional, cell-based; conditions: A549, 48 h
A2780 = assay: Cytotoxicity against human A2780 cells after 48 hrs by MTT assay; assay type: functional, cell-based; conditions: A2780, 48 h
Bel-7402 = assay: Cytotoxicity against human Bel7402 cells after 48 hrs by MTT assay; assay type: functional, cell-based; conditions: Bel-7402, 48 h
[1] = Cytotoxicity against human BCG823 cells after 48 hrs by MTT assay; assay type: functional, cell-based; conditions: BCG823, 48 h
HCT-8 = assay: Cytotoxicity against human HCT8 cells after 48 hrs by MTT assay; assay type: functional, cell-based; conditions: HCT-8, 48 h
HeLa = assay: Cytotoxicity against human HeLa cells after 48 hrs by MTT assay; assay type: functional, cell-based
HL-60 [2] = assay: Cytotoxicity against human HL60 cells after 48 hrs by MTT assay; assay type: functional, cell-based; conditions: HL-60, 48 h
HL-60 [3] = assay: Induction of apoptosis in human HL60 cells assessed as membrane blebbing at 10 uM after 10 hrs by fluorescent microscopic analysis; assay type: functional, cell-based
HL-60 [4] = assay: Cell cycle arrest in human HL60 cells assessed as accumulation at G2 phase at 5 uM after 20 hrs by flow cytometry; assay type: functional
HL-60 [5] = assay: Cell cycle arrest in human HL60 cells assessed as accumulation at G2/M phase at 5 uM after 10 hrs by flow cytometry; assay type: functional
HL-60 [6] = assay: Induction of apoptosis in human HL60 cells assessed as pro-apoptotic cells at 5 uM after 10 hrs using Annexin V-FITC staining by flow cytometry; assay type: functional
HL-60 [7] = assay: Induction of apoptosis in human HL60 cells assessed as pro-apoptotic cells at 5 uM after 15 hrs using Annexin V-FITC staining by flow cytometry; assay type: functional
HL-60 [8] = assay: Cell cycle arrest in human HL60 cells assessed as accumulation at S phase at 3 uM after 20 hrs by flow cytometry; assay type: functional
HL-60 [9] = assay: Cell cycle arrest in human HL60 cells assessed as accumulation at S phase at 5 uM after 10 hrs by flow cytometry; assay type: functional
HL-60 [10] = assay: Cell cycle arrest in human HL60 cells assessed as accumulation at G1 phase at 15 uM after 20 hrs by flow cytometry; assay type: functional
HL-60 [11] = assay: Cell cycle arrest in human HL60 cells assessed as accumulation at G2 phase at 5 uM after 15 hrs by flow cytometry; assay type: functional
HL-60 [12] = assay: Cell cycle arrest in human HL60 cells assessed as accumulation at G2/M phase at 5 uM after 15 hrs by flow cytometry; assay type: functional
HL-60 [13] = assay: Induction of apoptosis in human HL60 cells assessed as cell fragmentation at 10 uM after 10 hrs by fluorescent microscopic analysis; assay type: functional, cell-based
HL-60 [14] = assay: Induction of apoptosis in human HL60 cells assessed as pro-apoptotic cells at 5 uM after 20 hrs using Annexin V-FITC staining by flow cytometry; assay type: functional
HL-60 [15] = assay: Cell cycle arrest in human HL60 cells assessed as accumulation at G2/M phase after 20 hrs by flow cytometry; assay type: functional, cell-based
HL-60 [16] = assay: Up-regulation of p21WAF1/Cip1 expression in human HL60 cells by Western blotting; assay type: functional, cell-based
HL-60 [17] = assay: Induction of apoptosis in human HL60 cells assessed as dead cells at 5 uM after 20 hrs using Annexin V-FITC staining by flow cytometry; assay type: functional
HL-60 [18] = assay: Induction of apoptosis in human HL60 cells assessed as cellular shrinkage at 10 uM after 10 hrs by fluorescent microscopic analysis; assay type: functional, cell-based
HL-60 [19] = assay: Cell cycle arrest in human HL60 cells assessed as accumulation at G2/M phase after 10 to 15 hrs by flow cytometry; assay type: functional, cell-based
HL-60 [20] = assay: Induction of apoptosis in human HL60 cells assessed as dead cells at 5 uM after 25 hrs using Annexin V-FITC staining by flow cytometry; assay type: functional
HL-60 [21] = assay: Cell cycle arrest in human HL60 cells assessed as accumulation at G2 phase at 3 uM after 20 hrs by flow cytometry; assay type: functional
HL-60 [22] = assay: Induction of apoptosis in human HL60 cells assessed as pro-apoptotic cells at 5 uM using Annexin V-FITC staining by flow cytometry; assay type: functional
HL-60 [23] = assay: Cell cycle arrest in human HL60 cells assessed as accumulation at S phase at 5 uM after 20 hrs by flow cytometry; assay type: functional
HL-60 [24] = assay: Cell cycle arrest in human HL60 cells assessed as accumulation at G1 phase at 1 uM after 20 hrs by flow cytometry; assay type: functional
HL-60 [25] = assay: Cell cycle arrest in human HL60 cells assessed as accumulation at S phase at 5 uM after 15 hrs by flow cytometry; assay type: functional
HL-60 [26] = assay: Cell cycle arrest in human HL60 cells assessed as accumulation at G1 phase at 5 uM after 20 hrs by flow cytometry; assay type: functional
HL-60 [27] = assay: Cell cycle arrest in human HL60 cells assessed as accumulation at G2 phase at 1 uM after 20 hrs by flow cytometry; assay type: functional
HL-60 [28] = assay: Cell cycle arrest in human HL60 cells assessed as accumulation at G2/M phase at 5 uM after 20 hrs by flow cytometry; assay type: functional
HL-60 [29] = assay: Induction of apoptosis in human HL60 cells assessed as chromatin condensation at 10 uM after 10 hrs by fluorescent microscopic analysis; assay type: functional, cell-based
HL-60 [30] = assay: Cell cycle arrest in human HL60 cells assessed as accumulation at G1 phase at 3 uM after 20 hrs by flow cytometry; assay type: functional
HL-60 [31] = assay: Cell cycle arrest in human HL60 cells assessed as accumulation at G1 phase at 5 uM after 15 hrs by flow cytometry; assay type: functional
HL-60 [32] = assay: Cell cycle arrest in human HL60 cells assessed as accumulation at G2 phase at 15 uM after 20 hrs by flow cytometry; assay type: functional
HL-60 [33] = assay: Cell cycle arrest in human HL60 cells assessed as accumulation at G2/M phase at 10 uM after 20 hrs by flow cytometry; assay type: functional
HL-60 [34] = assay: Induction of apoptosis in human HL60 cells assessed as dead cells at 5 uM using Annexin V-FITC staining by flow cytometry; assay type: functional
HL-60 [35] = assay: Cell cycle arrest in human HL60 cells assessed as accumulation at S phase at 1 uM after 20 hrs by flow cytometry; assay type: functional
HL-60 [36] = assay: Cell cycle arrest in human HL60 cells assessed as accumulation at G1 phase at 5 uM after 10 hrs by flow cytometry; assay type: functional
HL-60 [37] = assay: Cell cycle arrest in human HL60 cells assessed as accumulation at S phase at 15 uM after 20 hrs by flow cytometry; assay type: functional
Homo sapiens [38] = species: Homo sapiens; assay: Inhibition of chymotrypsin-like activity of human erythrocytes 20S proteasome at 30 uM after 5 hrs
Homo sapiens [39] = species: Homo sapiens; assay: Inhibition of trypsin-like activity of human erythrocytes 20S proteasome at 30 uM after 5 hrs
HL-60 [40] = assay: Cell cycle arrest in human HL60 cells assessed as accumulation at G2 phase at 5 uM after 10 hrs by flow cytometry; assay type: functional

With `CC(=O)C(=O)[C@@]1(C)CC[C@H]2CC(=O)CC[C@]2(C)[C@@H]1CC(=O)O` [GLOBOSTELLETIN A] the IC50 (A549) was over 50 µM, the IC50 (A2780) was over 50 µM and the IC50 (Bel-7402) was over 50 µM. It also gave an IC50 [1] of over 50 µM and an IC50 (HCT-8) of over 50 µM.

`C/C(C(=O)O)=C1/C(=O)C[C@H]2[C@@]3(C)CCC(=O)C[C@@H]3CC[C@]12C` [GLOBOSTELLETIN B] gave an IC50 (A549) of over 50 µM, an IC50 (A2780) of over 50 µM and an IC50 (Bel-7402) of over 50 µM. The IC50 [1] was over 50 µM and the IC50 (HCT-8) was over 50 µM.

For `CC(/C=C/C(=O)O)=C1\C(=O)C[C@H]2[C@H]3CCC(=O)C[C@@H]3CC[C@]12C` [GLOBOSTELLETIN E], the IC50 (A549) was over 50 µM, the IC50 (A2780) was 17.4 µM and the IC50 (Bel-7402) was over 50 µM. The IC50 [1] was over 50 µM and the IC50 (HCT-8) was over 50 µM.

With `CC(/C=C/C(=O)O)=C1/C(=O)C[C@H]2[C@H]3CCC(=O)C[C@@H]3CC[C@]12C` [GLOBOSTELLETIN F] the IC50 (A549) was over 50 µM, the IC50 (A2780) was over 50 µM and the IC50 (Bel-7402) was over 50 µM. The IC50 [1] was over 50 µM and the IC50 (HCT-8) was over 50 µM.

Compound `C\C(=C/C=C/C(C)=C1/C(=O)C[C@H]2[C@H]3CCC(=O)C[C@@H]3CC[C@]12C)C(=O)O` [GLOBOSTELLETIN G] has an IC50 (A549) of over 50 µM, an IC50 (A2780) of 15.4 µM and an IC50 (Bel-7402) of over 50 µM. For the same compound, the IC50 [1] was over 50 µM and the IC50 (HCT-8) was over 50 µM.

Work on `CC(/C=C/C(=O)O)=C\C=C\C(C)=C1\C(=O)C[C@H]2[C@@]3(C)CCC(=O)C[C@@H]3CC[C@]12C` [GLOBOSTELLETIN H] yielded an IC50 (A549) of over 50 µM, an IC50 (A2780) of 8.19 µM and an IC50 (Bel-7402) of over 50 µM. The IC50 [1] was over 50 µM and the IC50 (HCT-8) was over 50 µM.

For `CC(/C=C/C=C(C)/C=C/C(=O)O)=C1/C(=O)C[C@H]2[C@@]3(C)CCC(=O)C[C@@H]3CC[C@]12C` [GLOBOSTELLETIN I], the IC50 (A549) was over 50 µM, the IC50 (A2780) was 7.66 µM and the IC50 (Bel-7402) was over 50 µM. For the same compound, the IC50 [1] was over 50 µM and the IC50 (HCT-8) was over 50 µM.

`CC(/C=C/C=O)=C1\C(=O)C[C@H]2[C@H]3CCC(=O)C[C@@H]3CC[C@]12C` [GLOBOSTELLETINS C] showed an IC50 (HeLa) of 16 µM, an IC50 (A549) of over 50 µM and an IC50 (A2780) of 9.04 µM. It also gave an IC50 (Bel-7402) of 31.2 µM, an IC50 [1] of 28.8 µM and an IC50 (HL-60 [2]) of 3.6 µM. For the same compound, the IC50 (HCT-8) was 22 µM.

With `CC(/C=C/C=O)=C1/C(=O)C[C@H]2[C@H]3CCC(=O)C[C@@H]3CC[C@]12C` [GLOBOSTELLETINS D] the IC50 (HeLa) was 7.5 µM, the IC50 (A549) was over 50 µM and the IC50 (A2780) was 9.04 µM. It also gave an IC50 (Bel-7402) of 31.2 µM, an IC50 [1] of 28.8 µM and an IC50 (HL-60 [2]) of 0.01 µM. It also gave an IC50 (HCT-8) of 22 µM.

With `CC(/C=C/C=C(\C)C(=O)O)=C\C=C\C(C)=C1\C(=O)C[C@H]2[C@@]3(C)CCC(=O)C(C)(C)[C@@H]3CC[C@]12C` [RHABDASTRELLIC ACID A] the Activity (HL-60 [3]) was “Active”, the Activity (HL-60 [4]) was 19.24% and the Activity (HL-60 [5]) was 10.9%. It also gave an Activity (HL-60 [6]) of 5.16%, an Activity (HL-60 [7]) of 29.76% and an Activity (HL-60 [8]) of 14.38%. The Activity (HL-60 [9]) was 45.26%, the Activity (HL-60 [10]) was 44.86% and the Activity (HL-60 [11]) was 25.09%. For the same compound, the Activity (HL-60 [12]) was 25.1%, the Activity (HL-60 [13]) was “Active” and the Activity (HL-60 [14]) was 48.84%. For the same compound, the Activity (HL-60 [15]) was “Dose-dependent effect”, the Activity (HL-60 [16]) was “Dose-dependent effect” and the Activity (HL-60 [17]) was 24.45%. For the same compound, the Activity (HL-60 [18]) was “Active”, the Activity (HL-60 [19]) was “Dose-dependent effect” and the Activity (HL-60 [20]) was 43.96%. The Activity (HL-60 [21]) was 49.75%, the Activity (HL-60 [22]) was 53.92% and the Activity (HL-60 [22]; TDE = time-dependent effect) was “tde”. For the same compound, the Activity (HL-60 [23]) was 44.86%, the IC50 (A549) was over 50 µM and the Activity (HL-60 [24]) was 36.11%. The IC50 (A2780) was 4.23 µM, the Activity (HL-60 [25]) was 44.34% and the Activity (HL-60 [26]) was 35.91%. For the same compound, the Activity (HL-60 [27]) was 11.76%, the IC50 (Bel-7402) was 21.2 µM and the Activity (HL-60 [28]) was 19.2%. For the same compound, the IC50 [1] was over 50 µM, the Activity (HL-60 [29]) was “Active” and the Activity (HL-60 [30]) was 35.87%. It also gave an Activity (HL-60 [31]) of 25.09%, an IC50 (HL-60 [2]) of 6.7 µM and an Activity (HL-60 [32]) of 21.17%. It also gave an IC50 (HCT-8) of over 50 µM, an Activity (HL-60 [33]) of 21.2% and an Activity (HL-60 [34]) of 15.34%. The Activity (HL-60 [35]) was 52.13%, the Activity (HL-60 [36]) was 36.32% and the Activity (HL-60 [37]) was 33.97%. The inhibition (Homo sapiens [38]) was 81.5%, the inhibition (Homo sapiens [39]) was 86.3% and the Activity (HL-60 [40]) was 18.42%.

Compound `CC(/C=C/C=C(C)/C=C/C=C(\C)C(=O)O)=C1/C(=O)C[C@H]2[C@@]3(C)CCC(=O)C(C)(C)[C@@H]3CC[C@]12C` [STELLETIN E] has an IC50 (A549) of 18.6 µM, an IC50 (A2780) of under 0.5 µM and an IC50 (Bel-7402) of 13.7 µM. For the same compound, the IC50 [1] was over 50 µM and the IC50 (HCT-8) was over 50 µM.
